According to US5728686A, “Alkylxanthine phosphonates and alkylxanthine phosphine oxides and their use as pharmaceuticals” (Hoechst Aktiengesellschaft, priority 1996, dated 1998):
Values after ≈ are worked out from the molar mass of the structure shown.

Columns and labels:
[1] = tested on: isolated guinea pig lung strips, leukotriene D4 (LTD4); experiment: antagonist of LTD4-induced contraction of isolated guinea pig lung strips; type: cell-based; details: Cavia porcellus, read-out: Anticontractile action (lung), LTD4: concentration range corresponding to the IC50 value
Source text: 4. Activity as an antagonist of the contraction of isolated guinea pig lung strips
The test carried out is based on the same principle as the test indicated in the pharmacological test 3; however, lung strips are used here.
Preparation of the organ sections and experimental procedure:
The guinea pig is sacrificed under laughing gas anaesthesia. The entire pulmonary tract is exposed starting from the trachea. The lobes of the lung are cut in a circular fashion such that 3 mm wide strips are formed. The strips of the upper lobes are divided in order to obtain a total of six approximately equal size strips. The strips are suspended in the organ baths under a preload of 4 g. The nutrient solutions used are modified Krebs Henseleit solutions. When using "Platelet activating factor" (PAF) as an […], the composition of this solution corresponds to that for the agonist SP in "Test 3"; for the agonist LTD4 a Krebs Henseleit solution as in the case of the agonist KCl (Test 3) is used. 95% by volume O2, 5% by volume CO2 is used for bubbling through the bath; the bath temperature is 37° C. The experimental procedure is carried out in a therapeutically cumulative methodology, using the dosage graduations 1, 3, 6 and 10 μg/ml.
The experimental animals, organ bath, vehicles and manner of administration correspond to that stated in pharmacological test 3.
All numerical values are indicated in the unit μg/ml and relate to the concentration range of tested compound of the formula I (see example numbers in Table 1) which is necessary in order to cause a contraction which corresponds to the IC50 value.

[2] = tested on: muscle group (gastrocnemius, plantaris and soleus) of the immobilized right rear extremity; experiment: rat muscle function test: direct electrical stimulation of muscle group after 3 weeks' immobilization; type: in vivo, male Wistar rats; details: isotonic stimulation; oral, 1x per day for 3 weeks, as a rule 25 mg/kg; control approx. -25%; ≤-12% classified as active
Procedure, shortened: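 Male Wistar rats (about 300 g) had the right hindlimb immobilized in a plastic cast for 3 weeks while dosed orally once daily, usually 25 mg/kg in carboxymethylcellulose. Under pentobarbital, the gastrocnemius/plantaris/soleus group was stimulated directly: isometric force (0.5N preload, 15 min) as area-under-curve, and isotonic work (body-weight preload, 15 min) in J; results as Δ% immobilized vs contralateral muscle.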

[3] = tested on: isolated guinea pig lung strips, Platelet activating factor (PAF); experiment: antagonist of PAF-induced contraction of isolated guinea pig lung strips; type: cell-based; details: Cavia porcellus, read-out: Anticontractile action (lung), PAF: concentration range corresponding to the IC50 value
Procedure, shortened: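 Guinea pig lung strips, 3 mm wide, held at 4 g preload in modified Krebs-Henseleit at 37° C, gassed 95% O2/5% CO2, contracted by PAF or LTD4. Compound given cumulatively at 1, 3, 6 and 10 μg/ml; value is the concentration in μg/ml giving IC50-level effect.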

CCOP(=O)(CCCn1cnc2c1c(=O)[nH]c(=O)n2C)OCC [Example 2, Diethyl [4-(3-methylxanthin-7-yl)propyl]phosphonate]
IC50 [1]: 3 to 6 µg/mL (≈ 8.71 to 17.4 µM) | Work (performed work, right/left difference) [2]: +5 Δ % | IC50 [3]: 3 to 6 µg/mL (≈ 8.71 to 17.4 µM)
